According to ChEMBL document CHEMBL4840301, “Homophymamide A, Heterodetic Cyclic Tetrapeptide from a Homophymia sp. Marine Sponge: A Cautionary Note on Configurational Assignment of Peptides That Contain a Ureido Linkage” (J Nat Prod, 2021):

Molecular target: T1, Carboxypeptidase B (Sus scrofa, UniProt P09955)
T1 sequence (P09955 whole entry): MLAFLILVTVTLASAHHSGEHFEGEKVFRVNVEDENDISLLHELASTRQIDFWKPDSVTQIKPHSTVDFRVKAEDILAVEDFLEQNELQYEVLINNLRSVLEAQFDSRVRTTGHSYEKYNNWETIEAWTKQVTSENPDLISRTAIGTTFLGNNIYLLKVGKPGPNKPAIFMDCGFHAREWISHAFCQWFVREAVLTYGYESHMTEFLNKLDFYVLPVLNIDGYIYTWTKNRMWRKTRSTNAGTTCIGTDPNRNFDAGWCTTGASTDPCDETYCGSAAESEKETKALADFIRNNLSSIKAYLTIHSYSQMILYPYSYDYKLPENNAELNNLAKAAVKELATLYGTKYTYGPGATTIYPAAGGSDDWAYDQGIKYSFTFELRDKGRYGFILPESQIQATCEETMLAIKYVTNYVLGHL
Test: Inhibition of carboxypeptidase B in porcine pancreas using hippuryl-L-Arg as substrate preincubated with substrate for 2 mins followed by enzyme addition and measured after 5 mins by colorimetric method
Format: tissue-based

- IC50: 590 nM
Structure (SMILES): CC[C@H](C)[C@@H]1NC(=O)[C@H](CC(C)C)N(C)C(=O)[C@H](C)NC(=O)[C@H](NC(=O)N[C@@H](CCCNC(=N)N)C(=O)O)CCCCNC1=O
